| SMILES | melting point |
| --- | --- |
| CN(CCCOc1ccc(N/C(=C2\C(=O)Nc3ccccc32)c2ccccc2)cc1)Cc1ccccc1 [Example 288, (Z)-3-{1-[4-(3-(N-benzyl-N-methyl-amino)-propyloxy)-phenylamino]-1-phenyl-methylidene}-2-indolinone] | 187 to 189 °C |
| CCOC(=O)COc1ccc(N/C(=C2\C(=O)Nc3ccccc32)c2ccccc2)cc1 [Example 289, (Z)-3-{1-[4-(ethyloxycarbonylmethyloxy)-phenylamino]-1-phenyl-methylidene}-2-indolinone] | 175 to 177 °C |
| O=C(O)COc1ccc(N/C(=C2\C(=O)Nc3ccccc32)c2ccccc2)cc1 [Example 290, (Z)-3-{1-[4-(carboxymethyloxy)-phenylamino]-1-phenyl-methylidene}-2-indolinone] | 238 to 240 °C |
| CN(C)C(=O)COc1ccc(N/C(=C2\C(=O)Nc3ccccc32)c2ccccc2)cc1 [Example 291, (Z)-3-{1-[4-(dimethylaminocarbonylmethyloxy)-phenylamino]-1-phenyl-methylidene}-2-indolinone] | 224 to 226 °C |
| CN(C)CCN(C)C(=O)CN(c1ccc(N/C(=C2\C(=O)Nc3ccccc32)c2ccccc2)cc1)S(C)(=O)=O [Example 293, (Z)-3-{1-[4-(N—((N-(2-dimethylaminoethyl)-N-methyl-amino)-carbonylmethyl)-N-methylsulphonyl-amino)-phenylamino]-1-phenyl-methylidene}-2-indolinone] | 170 °C |
| CN(C)CCN(C)C(=O)CN(c1ccc(N/C(=C2\C(=O)Nc3ccc([N+](=O)[O-])cc32)c2ccccc2)cc1)S(C)(=O)=O [Example 294, (Z)-3-{1-[4-(N—((N-(2-dimethylaminoethyl)-N-methyl-amino)-carbonylmethyl)-N-methylsulphonyl-amino)-phenylamino]-1-phenyl-methylidene}-5-nitro-2-indolinone] | 138 to 140 °C |
| CCS(=O)(=O)N(CC(=O)NCCN(C)C)c1ccc(N/C(=C2\C(=O)Nc3ccc([N+](=O)[O-])cc32)c2ccccc2)cc1 [Example 295, (Z)-3-{1-[4-(N-(2-dimethylamino-ethylaminocarbonylmethyl)-N-ethylsulphonyl-amino)-phenylamino]-1-phenyl-methylidene}-5-nitro-2-indolinone] | 155 °C |
| CCS(=O)(=O)N(CC(=O)N(C)CCN(C)C)c1ccc(N/C(=C2\C(=O)Nc3ccc([N+](=O)[O-])cc32)c2ccccc2)cc1 [Example 296, (Z)-3-{1-[4-(N—((N-(2-dimethylaminoethyl)-N-methyl-amino)-carbonylmethyl)-N-ethylsulphonyl-amino)-phenylamino]-1-phenyl-methylidene}-5-nitro-2-indolinone] | 117 °C |
| CCOC(=O)CN(c1ccc(N/C(=C2\C(=O)Nc3ccccc32)c2ccccc2)cc1)S(=O)(=O)CC [Example 297, (Z)-3-{1-[4-(N-ethoxycarbonylmethyl-N-ethylsulphonyl-amino)-phenylamino]-1-phenyl-methylidene}-2-indolinone] | 228 to 230 °C |
| CCS(=O)(=O)N(CC(=O)O)c1ccc(N/C(=C2\C(=O)Nc3ccccc32)c2ccccc2)cc1 [Example 298, (Z)-3-{1-[4-(N-carboxymethyl-N-ethylsulphonyl-amino)-phenylamino]-1-phenyl-methylidene}-2-indolinone] | 240 to 242 °C |
| CCS(=O)(=O)N(CC(N)=O)c1ccc(N/C(=C2\C(=O)Nc3ccccc32)c2ccccc2)cc1 [Example 299, (Z)-3-{1-[4-(N-aminocarbonylmethyl-N-ethylsulphonyl-amino)-phenylamino]-1-phenyl-methylidene}-2-indolinone] | 259 °C |
| CCS(=O)(=O)N(CC(=O)NCCN(C)C)c1ccc(N/C(=C2\C(=O)Nc3ccccc32)c2ccccc2)cc1 [Example 301, (Z)-3-{1-[4-(N-(2-dimethylamino-ethylaminocarbonylmethyl)-N-ethylsulphonyl-amino)-phenylamino]-1-phenyl-methylidene}-2-indolinone] | 203 °C |

Second part, the compound after the results:

| melting point | SMILES |
| --- | --- |
| 170 to 172 °C | CCS(=O)(=O)N(CC(=O)N(C)CCN(C)C)c1ccc(N/C(=C2\C(=O)Nc3ccccc32)c2ccccc2)cc1 [Example 302, (Z)-3-{1-[4-(N—((N-(2-dimethylaminoethyl)-N-methyl-amino)-carbonylmethyl)-N-ethylsulphonyl-amino)-phenylamino]-1-phenyl-methylidene}-2-indolinone] |
| 159 to 161 °C | CN(C)C(=O)CN(c1ccc(N/C(=C2\C(=O)Nc3ccc([N+](=O)[O-])cc32)c2ccccc2)cc1)S(=O)(=O)Cc1ccccc1 [Example 303, (Z)-3-{1-[4-(N-(dimethylaminocarbonylmethyl)-N-benzylsulphonyl-amino)-phenylamino]-1-phenyl-methylidene}-5-nitro-2-indolinone] |
| 146 to 148 °C | CC(C)S(=O)(=O)N(CC(=O)N(C)C)c1ccc(N/C(=C2\C(=O)Nc3ccccc32)c2ccccc2)cc1 [Example 304, (Z)-3-{1-[4-(N-(dimethylaminocarbonylmethyl)-N-isopropylsulphonyl-amino)-phenylamino]-1-phenyl-methylidene}-2-indolinone] |
| 178 to 180 °C | CCCS(=O)(=O)N(CC(=O)N(C)C)c1ccc(N/C(=C2\C(=O)Nc3ccccc32)c2ccccc2)cc1 [Example 305, (Z)-3-{1-[4-(N-(dimethylaminocarbonylmethyl)-N-propylsulphonyl-amino)-phenylamino]-1-phenyl-methylidene}-2-indolinone] |
| 121 to 123 °C | CCCCS(=O)(=O)N(CC(=O)N(C)C)c1ccc(N/C(=C2\C(=O)Nc3ccccc32)c2ccccc2)cc1 [Example 306, (Z)-3-{1-[4-(N-(dimethylaminocarbonylmethyl)-N-butylsulphonyl-amino)-phenylamino]-1-phenyl-methylidene}-2-indolinone] |
| 245 °C | CCS(=O)(=O)N(CCN(C)C)c1ccc(N/C(=C2\C(=O)Nc3ccccc32)c2ccccc2)cc1 [Example 307, (Z)-3-{1-[4-(N-(2-dimethylaminoethyl)-N-ethylsulphonyl-amino)-phenylamino]-1-phenyl-methylidene}-2-indolinone] |
| 222 to 224 °C | CCS(=O)(=O)N(CCN1CCOCC1)c1ccc(N/C(=C2\C(=O)Nc3ccccc32)c2ccccc2)cc1 [Example 308, (Z)-3-{1-[4-(N-(2-morpholinoethyl)-N-ethylsulphonyl-amino)-phenylamino]-1-phenyl-methylidene}-2-indolinone] |
| 247 °C | CC(C)S(=O)(=O)N(CCN(C)C)c1ccc(N/C(=C2\C(=O)Nc3ccccc32)c2ccccc2)cc1 [Example 309, (Z)-3-{1-[4-(N-(2-dimethylaminoethyl)-N-isopropylsulphonyl-amino)-phenylamino]-1-phenyl-methylidene}-2-indolinone] |
| 212 °C | CCCS(=O)(=O)N(CCN(C)C)c1ccc(N/C(=C2\C(=O)Nc3ccc([N+](=O)[O-])cc32)c2ccccc2)cc1 [Example 310, (Z)-3-{1-[4-(N-(2-dimethylaminoethyl)-N-propylsulphonyl-amino)-phenylamino]-1-phenyl-methylidene}-5-nitro-2-indolinone] |
| 245 °C | CCCS(=O)(=O)N(CCN(C)C)c1ccc(N/C(=C2\C(=O)Nc3ccccc32)c2ccccc2)cc1 [Example 311, (Z)-3-{1-[4-(N-(2-dimethylaminoethyl)-N-propylsulphonyl-amino)-phenylamino]-1-phenyl-methylidene}-2-indolinone] |
| 241 to 243 °C | CN(C)CCN(c1ccc(N/C(=C2\C(=O)Nc3ccccc32)c2ccccc2)cc1)S(=O)(=O)c1ccccc1 [Example 312, (Z)-3-{1-[4-(N-(2-dimethylaminoethyl)-N-phenylsulphonyl-amino)-phenylamino]-1-phenyl-methylidene}-2-indolinone] |
| 248 °C | CN(C)CCN(c1ccc(N/C(=C2\C(=O)Nc3ccc([N+](=O)[O-])cc32)c2ccccc2)cc1)S(=O)(=O)Cc1ccccc1 [Example 313, (Z)-3-{1-[4-(N-(2-dimethylaminoethyl)-N-benzylsulphonyl-amino)-phenylamino]-1-phenyl-methylidene}-5-nitro-2-indolinone] |
| 244 °C | CN(C)CCN(c1ccc(N/C(=C2\C(=O)Nc3ccccc32)c2ccccc2)cc1)S(=O)(=O)Cc1ccccc1 [Example 314, (Z)-3-{1-[4-(N-(2-dimethylaminoethyl)-N-benzylsulphonyl-amino)-phenylamino]-1-phenyl-methylidene}-2-indolinone] |
| 194 °C | CCS(=O)(=O)N(CCCN(C)C)c1ccc(N/C(=C2\C(=O)Nc3ccccc32)c2ccccc2)cc1 [Example 316, (Z)-3-{1-[4-(N-(3-dimethylaminopropyl)-N-ethylsulphonyl-amino)-phenylamino]-1-phenyl-methylidene}-2-indolinone] |
| 188 to 190 °C | CCOC(=O)CN(c1cccc(N/C(=C2\C(=O)Nc3ccccc32)c2ccccc2)c1)S(C)(=O)=O [Example 317, (Z)-3-{1-[3-(N-ethoxycarbonylmethyl-N-methylsulphonyl-amino)-phenylamino]-1-phenyl-methylidene}-2-indolinone] |
| 270 °C (dec.) | CS(=O)(=O)N(CC(=O)O)c1cccc(N/C(=C2\C(=O)Nc3ccccc32)c2ccccc2)c1 [Example 318, (Z)-3-{1-[3-(N-carboxymethyl-N-methylsulphonyl-amino)-phenylamino]-1-phenyl-methylidene}-2-indolinone] |
| 227 to 230 °C | CS(=O)(=O)N(CC(N)=O)c1cccc(N/C(=C2\C(=O)Nc3ccccc32)c2ccccc2)c1 [Example 319, (Z)-3-{1-[3-(N-aminocarbonylmethyl-N-methylsulphonyl-amino)-phenylamino]-1-phenyl-methylidene}-2-indolinone] |
| 163 °C | CNC(=O)CN(c1cccc(N/C(=C2\C(=O)Nc3ccccc32)c2ccccc2)c1)S(C)(=O)=O [Example 320, (Z)-3-{1-[3-(N-methylaminocarbonylmethyl-N-methylsulphonyl-amino)-phenylamino]-1-phenyl-methylidene}-2-indolinone] |

Reference: patent publication US6855710B2, “Substituted indolines with an inhibitory effect on various kinases and complexes of CDKs” (Boehringer Ingelheim Pharma KG, priority 1998, dated 2005)
